Test results from ChEMBL document CHEMBL2028040, “Malaria Box”.
pEC50, pIC50: −log10 of the molar value.

Experiments:
[1] = MMV: Cytotoxicity against human fibroblasts (MRC-5) cells.; conditions: MRC-5 cells (human fibroblasts)
Plasmodium falciparum [2] = assay: MMV: Inhibition of Plasmodium falciparum 3D7 at 5uM compound concentration.; assay type: functional
Leishmania infantum = assay: MMV: Inhibition of Leishmania infantum (MHOM/MA/BE/67) in vitro.; assay type: functional, organism-based
Trypanosoma cruzi = assay: MMV: Inhibition of Trypanosoma cruzi (Tulahuen C4 LacZ) (Chagas in vitro).; assay type: functional, organism-based
Plasmodium falciparum [3] = assay: MMV: Inhibition of Plasmodium falciparum K1 (EC50).; assay type: functional, organism-based
[4] = tested on: Trypanosoma brucei rhodesiense; assay: MMV: Inhibition of Trypanosoma brucei rhodesiense (STIB 900) (HAT in vitro).; assay type: functional, organism-based
Plasmodium falciparum [5] = assay: MMV: Inhibition of Plasmodium falciparum 3D7 (EC50).; assay type: functional, organism-based
[6] = tested on: Trypanosoma brucei brucei; assay: MMV: Inhibition of Trypanosoma brucei brucei (Squib 427) (HAT in vitro).; assay type: functional, organism-based

SMILES | pIC50 [1] | inhibition at 5 µM (Plasmodium falciparum [2]) [%] | pIC50 (Leishmania infantum) | pIC50 (Trypanosoma cruzi) | pEC50 (Plasmodium falciparum [3]) | pIC50 [4] | pEC50 (Plasmodium falciparum [5]) | pIC50 [6]
O=C(CCc1ccccc1)c1ccccc1OCC(O)CN1CCCCC1 (centres undefined) | < 4.49 | 97 | 4.76 | 4.77 | 6.74 | 5.33 | 6.17 | 4.79
COc1ccc(-n2ccnc2SCC(=O)Nc2cc(C)ccc2C)c(OC)c1 | < 4.49 | 95 | < 4.49 | 4.61 | 6.41 | 4.68 | 6.77 | < 4.49
COc1ccc(N2CCN(C(CNC(=O)C3CCCCC3)c3ccc4c(c3)OCO4)CC2)cc1 (centres undefined) | < 4.49 | 97 | < 4.49 | 4.59 | 6.01 | 4.65 | 5.95 | < 4.49
CCC(O)c1ccc(Br)cc1NC(=O)c1cccc(Cl)c1 (centres undefined) | < 4.49 | 97 | < 4.49 | < 4.49 | 6.38 | 5.34 | 6.19 | 4.82
COC(=O)c1ccc(C2C3=C(O)CC(c4ccc(F)cc4)CC3=Nc3ccccc3N2C(=O)c2ccccc2)cc1 (centres undefined) | < 4.49 | 98 | 5.80 | < 4.49 | 6.14 | 5.76 | 6.49 | 5.38
CN(C)CCCNCc1ccc(-c2ccc(F)c(Cl)c2)o1 | 4.76 | 96 | 5.38 | 5.41 | 6.12 | > 6.90 | 6.06 | 6.73
Cn1c(=O)c2cc(C(=O)NCCCN3CCCCCC3)sc2c2ccccc21 | < 4.49 | 97 | < 4.49 | < 4.49 | 6.24 | 4.76 | 6.17 | < 4.49
Cc1sc2ncnc(Sc3nc4ccccc4[nH]3)c2c1C | < 4.49 | 100 | < 4.49 | < 4.49 | 6.24 | < 4.49 | 6.21 | < 4.49
CCOc1cc2c(cc1OCC)C(c1cc(OC)c(O)cc1Cl)NCC2 (centres undefined) | < 4.49 | 98 | < 4.49 | 4.83 | 6.94 | 4.79 | 6.43 | 4.82
CC1CN(C(=O)c2sc3ccccc3c2Cl)CC(C)O1 (centres undefined) | < 4.49 | 95 | < 4.49 | < 4.49 | 6.71 | < 4.49 | 7.59 | < 4.49
Oc1ccccc1CN1CCN(C(c2ccccc2)c2ccccc2)CC1 | < 4.49 | 97 | 4.92 | 5.39 | 6.69 | 4.90 | 6.21 | 4.81
c1ccc2c(NCCCCCCNc3c4c(nc5ccccc35)CCCC4)c3c(nc2c1)CCCC3 | 5.39 | 100 | 5.99 | 5.92 | 5.87 | 6.10 | 6.42 | 5.99
CCC1(C)CC(CCNCc2ccccc2O)(c2ccc(C)cc2)CCO1 (centres undefined) | 4.79 | 97 | 5.36 | 4.80 | 7.43 | 6.00 | 6.85 | 5.52
OC(CNC1CCCCC1)Cn1c2ccccc2c2ccccc21 (centres undefined) | < 4.49 | 93 | 4.78 | < 4.49 | 5.93 | 5.39 | 6.53 | 5.38
O=C(NC1CCN(Cc2ccccc2)CC1)c1cc(C(=O)NC2CCN(Cc3ccccc3)CC2)cc(C(=O)NC2CCN(Cc3ccccc3)CC2)c1 | < 4.49 | 98 | 5.39 | 4.60 | 6.03 | 5.55 | 6.19 | 5.39
CC(=O)Nc1nnc(SCc2c(C)cc(C(C)(C)C)cc2C)s1 | < 4.49 | 96 | < 4.49 | < 4.49 | 6.07 | < 4.49 | 6.06 | < 4.49
CCn1c(CN2CCN(Cc3ccccc3)CC2)nc2cc(NC(=O)c3cccs3)ccc21 | < 4.49 | 97 | 4.65 | 4.89 | 6.38 | 4.81 | 6.29 | < 4.49
O=C1c2ccc3c4c(ccc(c24)C(=O)N1CCCCO)C(=O)N(CCCCO)C3=O | 4.86 | 97 | 5.99 | 5.68 | 6.07 | 6.00 | 6.10 | 5.55
